One may read the MIC as the smallest concentration in the dilution series that meets the test's criterion for growth inhibition.

Among the data in ChEMBL document CHEMBL2440055, “Unusual transformation of substituted-3-formylchromones to pyrimidine analogues: synthesis and antimicrobial activities of 5-(o-hydroxyaroyl)pyrimidines” (Bioorg Med Chem Lett, 2013) are viability and MIC values, retold here.

Molecules are shown by their SMILES. Converted amounts (≈) assume the structure as drawn. The source made the active and inactive calls. A value given as a limit tells only on which side of the number the result lay.

Data set [1] is described as follows: Cytotoxicity against human HeLa cells assessed as cell survival at 200 uM up to 24 hrs by MTT assay. The conditions noted are these: read-out: Survival. Format: cell-based. (In general: Tetrazolium assays rely on reduction of a dye to a coloured formazan, in cell work by metabolically active cells.)
A short description of data set [2]: Cytotoxicity against human HeLa cells assessed as cell survival at 20 uM after 24 hrs by MTT assay. Format: cell-based. As to conditions: read-out: Survival.
For another data set, the system named is Pseudomonas aeruginosa. Nature of the data set: Antibacterial activity against Pseudomonas aeruginosa MTCC-741 after overnight incubation by two-fold broth dilution method. Format: functional. (Dilution methods test growth across graded concentrations, often in twofold steps.)
The next data set deals with Shigella flexneri. Nature of the data set: Antibacterial activity against Shigella flexneri MTCC-1457 after overnight incubation by two-fold broth dilution method. Format: functional.
A further data set relates to Escherichia coli. Nature of the data set: Antibacterial activity against Escherichia coli MTCC-119 after overnight incubation by two-fold broth dilution method. Format: functional.
In the next data set the test system is Candida tropicalis. The data set is described as follows: Antifungal activity against Candida tropicalis MTCC-230 after 24 to 72 hrs by broth dilution method. Format: functional.
Another data set has as its system Aspergillus niger. Nature of the data set: Antifungal activity against Aspergillus niger MTCC-281 after 24 to 72 hrs by broth dilution method. Format: functional.
The subject of the next data set is Geotrichum. The data set is described as follows: Antifungal activity against Geotrichum candidum MTCC-3993 after 24 to 72 hrs by broth dilution method. Format: functional.
In a further data set the test system is Candida albicans. The data set is described as follows: Antifungal activity against Candida albicans MTCC-227 after 24 to 72 hrs by broth dilution method. Format: functional.
Data set [3] relates to Staphylococcus aureus. The conditions noted are these: MTCC-740.
Data set [4] relates to Staphylococcus aureus. The data set is described as follows: Antibacterial activity against Staphylococcus aureus MTCC-740 after overnight incubation by two-fold broth dilution method.

On to `O=C(c1cncnc1)c1cc(F)c(Cl)cc1O`, for which, in data set [1], the viability at 24 h, 200 µM is 84%. Further, the viability at 24 h, 20 µM in [2] was found to be 98%. For the same molecule, the MIC against Pseudomonas aeruginosa is 70 µg/mL (≈ 277 µM); in the data set on Shigella flexneri, 50 µg/mL (≈ 198 µM); against Escherichia coli, more than 100 µg/mL; with Candida tropicalis, 46 µg/mL (≈ 182 µM); against Aspergillus niger, 48 µg/mL (≈ 190 µM); against Geotrichum it was 15 µg/mL (≈ 59.4 µM). Inhibition of growth with Candida albicans (MIC) required 46 µg/mL (≈ 182 µM). In the data set with Staphylococcus aureus [3], the MIC entry is “inactive”.
Turning to `Cc1ccc(O)c(C(=O)c2cncnc2)c1`, the MIC was 60 µg/mL (≈ 280 µM) with Pseudomonas aeruginosa; 84 µg/mL (≈ 392 µM) in the data set with Shigella flexneri; more than 100 µg/mL against Escherichia coli; 54 µg/mL (≈ 252 µM) against Candida tropicalis; 55 µg/mL (≈ 257 µM) in the data set on Aspergillus niger; 40 µg/mL (≈ 187 µM) with Geotrichum. In the data set with Candida albicans, this molecule returned a minimal inhibitory concentration (MIC) of 70 µg/mL (≈ 327 µM). Moreover, the MIC entry with Staphylococcus aureus [3] was “inactive”.
For `OC(Cn1cncn1)(Cn1cncn1)c1ccc(F)cc1F` [FLUCONAZOLE], the MIC in the data set with Candida tropicalis is 23 µg/mL (≈ 75.1 µM); against Aspergillus niger it was 45 µg/mL (≈ 147 µM); against Geotrichum it was 10 µg/mL (≈ 32.7 µM); against Candida albicans it was 20 µg/mL (≈ 65.3 µM).
For the molecule `O=C(c1cncnc1)c1cc(F)ccc1O`, the MIC against Pseudomonas aeruginosa was more than 100 µg/mL; in the data set on Shigella flexneri it was 78 µg/mL (≈ 357 µM); in the data set with Escherichia coli, more than 100 µg/mL; with Candida tropicalis it was 78 µg/mL (≈ 357 µM); in the data set on Aspergillus niger, more than 100 µg/mL; against Geotrichum, 35 µg/mL (≈ 160 µM). The same molecule gave a minimum inhibitory concentration (MIC) in the data set on Candida albicans of 28 µg/mL (≈ 128 µM). Besides, the MIC entry with Staphylococcus aureus [3] was “inactive”.
`O=C(c1cncnc1)c1cc(Cl)ccc1O`: the minimal inhibitory concentration (MIC) in the data set on Pseudomonas aeruginosa is 96 µg/mL (≈ 409 µM); in the data set with Shigella flexneri, 74 µg/mL (≈ 315 µM); against Escherichia coli it was 68 µg/mL (≈ 290 µM); in the data set with Candida tropicalis, more than 100 µg/mL; in the data set on Aspergillus niger, 50 µg/mL (≈ 213 µM); against Geotrichum, 28 µg/mL (≈ 119 µM). The molecule further had a minimum inhibitory concentration (MIC) in the data set on Candida albicans of 35 µg/mL (≈ 149 µM). For the same molecule, the MIC result in the data set with Staphylococcus aureus [3] was “inactive”.
On to `O=C(c1cncnc1)c1ccccc1O`, for which the minimum inhibitory concentration (MIC) against Pseudomonas aeruginosa is 66 µg/mL (≈ 330 µM); against Shigella flexneri, 58 µg/mL (≈ 290 µM); against Escherichia coli, 64 µg/mL (≈ 320 µM); against Candida tropicalis, more than 100 µg/mL; against Aspergillus niger it was 70 µg/mL (≈ 350 µM); against Geotrichum, 48 µg/mL (≈ 240 µM). This molecule also yielded a minimal inhibitory concentration (MIC) in the data set with Candida albicans of 34 µg/mL (≈ 170 µM). In addition, in the data set with Staphylococcus aureus [3], the MIC result is “inactive”.
For the molecule `O=C(O)c1cn(C2CC2)c2cc(N3CCNCC3)c(F)cc2c1=O` [CIPROFLOXACIN], the minimum inhibitory concentration (MIC) came to 1.6 µg/mL (≈ 4.83 µM) in the data set with Staphylococcus aureus [4], 0.7 µg/mL (≈ 2.11 µM) against Pseudomonas aeruginosa and 1.2 µg/mL (≈ 3.62 µM) against Shigella flexneri.
